Experimental data taken from the supplement of paper PMC10307832.

compound: CC(C)(C)c1cc(NC(=O)Nc2ccc(-c3cn4c(n3)sc3cc(OCCN5CCOCC5)ccc34)cc2)no1 [Quizartinib] + CC(=O)Nc1cccc(-n2c(=O)n(C3CC3)c(=O)c3c(Nc4ccc(I)cc4F)n(C)c(=O)c(C)c32)c1 [Trametinib] (partner 0.02 µM); assay: relative viability (nuclei count vs DMSO), 5 days (fraction); higher = more cells survive; conditions: first compound 0.001 µM
Method in brief: (§1)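 Lung cancer cell lines in 1536-well plates got either a single drug or a fixed anchor-drug dose together with five library-drug doses (not always all listed) in √10 steps, by pin tool, on the day after seeding. Nuclei were counted after 5 days, and relative viability is the treated-to-vehicle ratio of nuclei counts. Values are medians of duplicate plates.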

Row | Cell Line | relative viability
1 | HARA | 0.508
2 | NCI-H1975 | 0.285
3 | NCI-H2126 | 0.575
4 | EMC-BAC-2 | 0.811
5 | SK-LU-1 | 0.464
6 | NCI-H661 | 0.575
7 | HOP-62 | 0.33
8 | PC-14 | 0.692
9 | NCI-H1993 | 0.445
10 | NCI-H2405 | 0.623

same assay, conditions: first compound 0.003162 µM

Row | Cell Line | relative viability
11 | LCLC-103H | 0.645
12 | NCI-H1734 | 0.64
13 | HCC-78 | 0.662
14 | COR-L 105 | 0.445
15 | HCC-15 | 0.387
16 | HARA | 0.715
17 | NCI-H1975 | 0.381
18 | NCI-H2126 | 0.552
19 | EMC-BAC-2 | 0.899
20 | SK-LU-1 | 0.372
21 | NCI-H661 | 0.533
22 | HOP-62 | 0.367
23 | PC-14 | 0.726
24 | NCI-H1993 | 0.46
25 | NCI-H2405 | 0.621

same assay, conditions: first compound 0.01 µM

Row | Cell Line | relative viability
26 | LCLC-103H | 0.664
27 | NCI-H1734 | 0.78
28 | HCC-78 | 0.848
29 | COR-L 105 | 0.507
30 | HCC-15 | 0.409
31 | HARA | 0.626
32 | NCI-H1975 | 0.287
33 | NCI-H2126 | 0.604
34 | EMC-BAC-2 | 0.865
35 | SK-LU-1 | 0.515
36 | NCI-H661 | 0.554
37 | HOP-62 | 0.399
38 | PC-14 | 0.977
39 | NCI-H1993 | 0.576
40 | NCI-H2405 | 0.599

same assay, conditions: first compound 0.03162 µM

Row | Cell Line | relative viability
41 | LCLC-103H | 0.712
42 | NCI-H1734 | 0.571
43 | HCC-78 | 0.593
44 | HCC-15 | 0.326
45 | HARA | 0.555
46 | NCI-H1975 | 0.435
47 | NCI-H2126 | 0.53
48 | SK-LU-1 | 0.394
49 | NCI-H661 | 0.552
50 | HOP-62 | 0.383
51 | NCI-H1993 | 0.619
52 | NCI-H2405 | 0.57

same assay, conditions: first compound 0.1 µM

Row | Cell Line | relative viability
53 | LCLC-103H | 0.694
54 | NCI-H1734 | 0.698
55 | HCC-78 | 0.913
56 | COR-L 105 | 0.516
57 | HCC-15 | 0.364
58 | HARA | 0.459
59 | NCI-H1975 | 0.322
60 | NCI-H2126 | 0.492
61 | EMC-BAC-2 | 0.857
62 | SK-LU-1 | 0.434
63 | NCI-H661 | 0.525
64 | HOP-62 | 0.304
65 | PC-14 | 0.836
66 | NCI-H1993 | 0.527
67 | NCI-H2405 | 0.691

compound: CC(C)(C)c1cc(NC(=O)Nc2ccc(-c3cn4c(n3)sc3cc(OCCN5CCOCC5)ccc34)cc2)no1 [Quizartinib] + Nc1ncn([C@H]2C[C@H](O)[C@@H](CO)O2)c(=O)n1 [Decitabine] (partner 2 µM); assay: as above; conditions: first compound 0.001 µM
Method in brief: as §1

Row | Cell Line | relative viability
68 | LCLC-103H | 0.632
69 | NCI-H1734 | 0.504
70 | HCC-78 | 0.651
71 | COR-L 105 | 0.642
72 | HCC-15 | 0.57
73 | HARA | 0.456
74 | NCI-H1975 | 0.361
75 | NCI-H2126 | 0.623
76 | EMC-BAC-2 | 0.812
77 | SK-LU-1 | 0.592
78 | NCI-H661 | 0.55
79 | HOP-62 | 0.215
80 | PC-14 | 0.218
81 | NCI-H1993 | 0.564
82 | NCI-H2405 | 0.723

same assay, conditions: first compound 0.003162 µM

Row | Cell Line | relative viability
83 | LCLC-103H | 0.735
84 | NCI-H1734 | 0.459
85 | HCC-78 | 0.624
86 | COR-L 105 | 0.653
87 | HCC-15 | 0.651
88 | HARA | 0.518
89 | NCI-H1975 | 0.368
90 | NCI-H2126 | 0.519
91 | EMC-BAC-2 | 0.975
92 | SK-LU-1 | 0.631
93 | NCI-H661 | 0.5
94 | HOP-62 | 0.219
95 | PC-14 | 0.198
96 | NCI-H1993 | 0.673
97 | NCI-H2405 | 0.72

same assay, conditions: first compound 0.01 µM

Row | Cell Line | relative viability
98 | LCLC-103H | 0.682
99 | NCI-H1734 | 0.656
100 | HCC-78 | 0.619
101 | COR-L 105 | 0.641
102 | HCC-15 | 0.612
103 | HARA | 0.743
104 | NCI-H1975 | 0.632
105 | NCI-H2126 | 0.693
106 | EMC-BAC-2 | 1.04
107 | SK-LU-1 | 0.756
108 | NCI-H661 | 0.577
109 | HOP-62 | 0.217
110 | PC-14 | 0.225
111 | NCI-H1993 | 0.624
112 | NCI-H2405 | 0.789

same assay, conditions: first compound 0.03162 µM

Row | Cell Line | relative viability
113 | LCLC-103H | 0.796
114 | NCI-H1734 | 0.499
115 | HCC-78 | 0.631
116 | HCC-15 | 0.521
117 | HARA | 0.522
118 | NCI-H1975 | 0.379
119 | NCI-H2126 | 0.557
120 | SK-LU-1 | 0.717
121 | NCI-H661 | 0.561
122 | HOP-62 | 0.227
123 | PC-14 | 0.144
124 | NCI-H1993 | 0.632
125 | NCI-H2405 | 0.737

same assay, conditions: first compound 0.1 µM

Row | Cell Line | relative viability
126 | LCLC-103H | 0.759
127 | NCI-H1734 | 0.485
128 | HCC-78 | 0.751
129 | COR-L 105 | 0.625
130 | HCC-15 | 0.615
131 | HARA | 0.703
132 | NCI-H1975 | 0.358
133 | NCI-H2126 | 0.592
134 | EMC-BAC-2 | 0.996
135 | SK-LU-1 | 0.66
136 | NCI-H661 | 0.599
137 | HOP-62 | 0.213
138 | PC-14 | 0.324
139 | NCI-H1993 | 0.615
140 | NCI-H2405 | 0.87
